The first assay concerns human gastric adenocarcinoma (AGS) cell line. Nature of the assay: MTT reduction assay, cell viability / cytotoxicity in AGS cell line. The note with it: AGS cell line, cell viability, MTT, 48 h incubation, 100 µM, mean ± SD. Format: cell-based. Here is the method:
The cytotoxicity was assessed in different cell lines with the endpoint MTT, using previously reported procedure. The following cells were obtained from the American Type Culture Collection: human embryonic kidney epithelial cell line (HEK 293T, ATCC HBT-22™), breast cancer cell line (MDA-MB-231, ATCC HTB-26™), osteosarcoma cell line (MG-63, ATCC CRL-1427™), gastric adenocarcinoma cell line (AGS, ATTC CRL-1739TM), prostate cancer cell line (DU-145, ATTC HTB-81™), and lung carcinoma cell line (A-549, ATCC CCL-185™). All cell lines were seeded at 2 × 10^4 cells/well with exception of A-549 cell line, which was seeded at 5 × 10^3 cells/well.
For orientation: Tetrazolium assays rely on reduction of a dye to a coloured formazan, in cell work by metabolically active cells.
As for `O=C1CC[C@]2(c3ccc(Br)cc3)OC[C@@H](Cc3c[nH]c4ccccc34)N12` [Compound 7d, (3R,7aR)-3-((1H-indol-3-yl)methyl)-7a-(4-bromophenyl)tetrahydropyrrolo[2,1-b]oxazol-5(6H)-one], the “% CV at 100 µM” value is 14 ± 3%. `O=C1CC[C@]2(c3ccccc3)OC[C@@H](Cc3c[nH]c4ccccc34)N12` [Compound 7a, (3R,7aR)-3-((1H-indol-3-yl)methyl)-7a-phenyltetrahydropyrrolo[2,1-b]oxazol-5(6H)-one]: the “% CV at 100 µM” value stood at 50 ± 5%.

In the case of `CS(=O)(=O)c1ccc([C@]23CCC(=O)N2[C@H](Cc2c[nH]c4ccccc24)CO3)cc1` [Compound 7g, (3R,7aR)-3-((1H-indol-3-yl)methyl)-7a-(4-(methylsulfonyl)phenyl)tetrahydropyrrolo[2,1-b]oxazol-5(6H)-one], the “% CV at 100 µM” value is 94 ± 12%. Consider `O=C1CC[C@@]2(c3ccc(F)cc3)OC[C@H](Cc3c[nH]c4ccccc34)N12` [Compound 8b, (3S,7aS)-3-((1H-indol-3-yl)methyl)-7a-(4-fluorophenyl)tetrahydropyrrolo[2,1-b]oxazol-5(6H)-one], for which the “% CV at 100 µM” value turned out to be 22 ± 4%. For the compound `O=C1CC[C@@]2(c3ccccc3)OC[C@H](Cc3c[nH]c4ccccc34)N12` [Compound 8a, (3S,7aS)-3-((1H-indol-3-yl)methyl)-7a-phenyltetrahydropyrrolo[2,1-b]oxazol-5(6H)-one], the “% CV at 100 µM” value worked out at 58 ± 4%. Regarding `O=C1CC[C@]2(c3ccc(Cl)cc3)OC[C@@H](Cc3c[nH]c4ccccc34)N12` [Compound 7c, (3R,7aR)-3-((1H-indol-3-yl)methyl)-7a-(4-chlorophenyl)tetrahydropyrrolo[2,1-b]oxazol-5(6H)-one], the “% CV at 100 µM” value is 6 ± 1%.

With `COc1ccc([C@@]23CCC(=O)N2[C@@H](Cc2c[nH]c4ccccc24)CO3)cc1` [Compound 8f, (3S,7aS)-3-((1H-indol-3-yl)methyl)-7a-(4-methoxyphenyl)tetrahydropyrrolo[2,1-b]oxazol-5(6H)-one], the “% CV at 100 µM” value was 30 ± 4%. With `O=C1CC[C@@]2(c3ccc(Br)cc3)OC[C@H](Cc3c[nH]c4ccccc34)N12` [Compound 8d, (3S,7aS)-3-((1H-indol-3-yl)methyl)-7a-(4-bromophenyl)tetrahydropyrrolo[2,1-b]oxazol-5(6H)-one], the “% CV at 100 µM” value is listed as 25 ± 4%. `O=C1CC[C@]2(c3ccc(F)cc3)OC[C@@H](Cc3c[nH]c4ccccc34)N12` [Compound 7b, (3R,7aR)-3-((1H-indol-3-yl)methyl)-7a-(4-fluorophenyl)tetrahydropyrrolo[2,1-b]oxazol-5(6H)-one]: the “% CV at 100 µM” value is reported as 50 ± 8%.

For `COc1ccc([C@]23CCC(=O)N2[C@H](Cc2c[nH]c4ccccc24)CO3)cc1` [Compound 7f, (3R,7aR)-3-((1H-indol-3-yl)methyl)-7a-(4-methoxyphenyl)tetrahydropyrrolo[2,1-b]oxazol-5(6H)-one], the “% CV at 100 µM” value is reported as 18 ± 2%. Turning to `Cc1ccc([C@@]23CCC(=O)N2[C@@H](Cc2c[nH]c4ccccc24)CO3)cc1` [Compound 8e, (3S,7aS)-3-((1H-indol-3-yl)methyl)-7a-(p-tolyl)tetrahydropyrrolo[2,1-b]oxazol-5(6H)-one], the “% CV at 100 µM” value is recorded as 60 ± 3%. `CS(=O)(=O)c1ccc([C@@]23CCC(=O)N2[C@@H](Cc2c[nH]c4ccccc24)CO3)cc1` [Compound 8g, (3S,7aS)-3-((1H-indol-3-yl)methyl)-7a-(4-(methylsulfonyl)phenyl)tetrahydropyrrolo[2,1-b]oxazol-5(6H)-one]: the “% CV at 100 µM” value was determined as 91 ± 11%. For `O=C1CC[C@@]2(c3ccc(Cl)cc3)OC[C@H](Cc3c[nH]c4ccccc34)N12` [Compound 8c, (3S,7aS)-3-((1H-indol-3-yl)methyl)-7a-(4-chlorophenyl)tetrahydropyrrolo[2,1-b]oxazol-5(6H)-one], the “% CV at 100 µM” value came to 11 ± 1%. As to `Cc1ccc([C@]23CCC(=O)N2[C@H](Cc2c[nH]c4ccccc24)CO3)cc1` [Compound 7e, (3R,7aR)-3-((1H-indol-3-yl)methyl)-7a-(p-tolyl)tetrahydropyrrolo[2,1-b]oxazol-5(6H)-one], the “% CV at 100 µM” value is given as 14 ± 2%.

The same assay, now with this note: Homo sapiens; AGS cell line, cell viability, MTT, 48 h incubation, 50 µM, mean ± SD; read-out: % CV at 50 µM.
Consider `O=C1CC[C@]2(c3ccc(-c4ccc5c(c4)OCCO5)cc3)OC[C@@H](Cc3c[nH]c4ccccc34)N12` [Compound 7u, (3R,7aR)-3-((1H-indol-3-yl)methyl)-7a-(4-(2,3-dihydrobenzo[b][1, 4]dioxin-6-yl)phenyl)tetrahydropyrrolo[2,1-b]oxazol-5(6H)-one], for which the viability at 50 µM came out at 67 ± 6%. On the same count and under the same terms, the value for `CC1CC(=O)N2C(Cc3c[nH]c4ccccc34)COC12c1ccc(Cl)cc1` (stereo not shown) [Compound 7j] was 8%; that for `O=C1CC[C@]2(c3ccc(-c4cccc(Cl)c4)cc3)OC[C@@H](Cc3c[nH]c4ccccc34)N12` [Compound 7r, (3R,7aR)-3-((1H-indol-3-yl)methyl)-7a-(3’-chloro-[1,1’-biphenyl]-4-yl)tetrahydropyrrolo[2,1-b]oxazol-5(6H)-one] was 17 ± 1%.

For `CCn1cc(C[C@@H]2CO[C@@]3(c4ccc(Cl)cc4)CCC(=O)N23)c2ccccc21` [Compound 7k, (3R,7aR)-7a-(4-chlorophenyl)-3-((1-ethyl-1H-indol-3-yl)methyl)tetrahydropyrrolo[2,1-b]oxazol-5(6H)-one], the viability at 50 µM came to 40 ± 5%. Consider `O=C1CC[C@]2(c3ccc(-c4ccncc4)cc3)OC[C@@H](Cc3c[nH]c4ccccc34)N12` [Compound 7t, (3R,7aR)-3-((1H-indol-3-yl)methyl)-7a-(4-(pyridin-4-yl)phenyl)tetrahydropyrrolo[2,1-b]oxazol-5(6H)-one], for which the viability at 50 µM stood at 75 ± 14%. On to `O=C1CC[C@]2(c3ccc(-c4ccc(O)cc4)cc3)OC[C@@H](Cc3c[nH]c4ccccc34)N12` [Compound 7p, (3R,7aR)-3-((1H-indol-3-yl)methyl)-7a-(4’-hydroxy-[1,1’-biphenyl]-4-yl)tetrahydropyrrolo[2,1-b]oxazol-5(6H)-one], for which the viability at 50 µM was determined as 56 ± 1%. Regarding `O=C1CC[C@]2(c3ccc(-c4ccc(Cl)cc4)cc3)OC[C@@H](Cc3c[nH]c4ccccc34)N12` [Compound 7n, (3R,7aR)-3-((1H-indol-3-yl)methyl)-7a-(4’-chloro-[1,1’-biphenyl]-4-yl)tetrahydropyrrolo[2,1-b]oxazol-5(6H)-one], the viability at 50 µM is 65 ± 13%. Take `COc1ccc([C@]23CCC(=O)N2[C@H](Cc2c[nH]c4ccccc24)CO3)cc1F` [Compound 7i, (3R,7aR)-3-((1H-indol-3-yl)methyl)-7a-(3-fluoro-4-methoxyphenyl)tetrahydropyrrolo[2,1-b]oxazol-5(6H)-one]: the viability at 50 µM was determined as 84 ± 7%. Still for that read-out and setting: the figure for `O=C1CC[C@]2(c3ccc(Cl)cc3)OC[C@@H](Cc3c[nH]c4ccccc34)N12` [Compound 7c, (3R,7aR)-3-((1H-indol-3-yl)methyl)-7a-(4-chlorophenyl)tetrahydropyrrolo[2,1-b]oxazol-5(6H)-one] is 11 ± 1%; for `Cc1ccc([C@]23CCC(=O)N2[C@H](Cc2c[nH]c4ccccc24)CO3)cc1Cl` [Compound 7h, (3R,7aR)-3-((1H-indol-3-yl)methyl)-7a-(3-chloro-4-methylphenyl)tetrahydropyrrolo[2,1-b]oxazol-5(6H)-one] it is 11 ± 2%. Take `CC(C)(C)OC(=O)n1cc(C[C@@H]2CO[C@@]3(c4ccc(Cl)cc4)CCC(=O)N23)c2ccccc21` [Compound 7m, tert-butyl 3-(((3R,7aR)-7a-(4-chlorophenyl)-5-oxohexahydropyrrolo[2,1-b]oxazol-3-yl)methyl)-1H-indole-1-carboxylate]: the viability at 50 µM came out at 61 ± 9%.

Source of the values: publication PMC8001353, “Tryptophanol-Derived Oxazolopyrrolidone Lactams as Potential Anticancer Agents against Gastric Adenocarcinoma” (Pharmaceuticals, 2021).
